Measured values from US11780849B2, “Imino sulfanone inhibitors of ENPP1” (Volastra Therapeutics, Inc., priority 2020, dated 2023).
Like-named read-outs stand apart in the source and are kept apart here.

Assays:
[1] = biological target: ENPP1 on MDA-MB-231 cells (Homo sapiens (Human), UniProt P22413); assay: Assay 3: inhibition of ENPP1 hydrolysis of AMP p-nitrophenyl ester on MDA-MB-231 cells
Protocol: Hydrolysis of the p-nitrophenyl ester of AMP (pNP-AMP), an isostere of ATP, is selectively catalyzed by ENPP1 in the supernatant of MDA-MB-231 cell cultures. Inhibition of the hydrolysis of pNP-AMP by MDA-MB-231 at pH 7.4 and 37° C., is a good model of physiologically relevant activity of membrane-bound ENPP1 at disease-relevant expression levels.
MDA-MB-231 cells were harvested using TypLE Express Enzyme digestion and suspended in 100 μL of Leibovitz's L-15 Medium, 20% FBS, seeding the cells in a 96-well assay plate with 4.5×10^4 cells/well. Cells were incubated at 37° C. with 1% CO2 for 24 h. In a separate dilution plate, 2× of top dose of compound was prepared in phenol-red free 1640 medium without FBS and then 1:3 serial diluted in the same medium. The cell culture medium of L15 medium was aspirated carefully and cells were washed with PBS once, and 50 μL per well of test compound or DMSO blank were added to the assay plate. Substrate mix (50 μL; 0.5 mM pNP-AMP in phenol-red free 1640 media without FBS) was added for a pNP-AMP final concentration of 0.25 mM. The system was incubated at 37° C. for 3 h.

ENPP-1 ECD [2] = biological target: T1, ENPP-1 ECD (Homo sapiens (Human), UniProt P22413); assay: Assay 2: inhibition of ENPP1 hydrolysis of 2′,3′-cGAMP (AMP-Glo, […] enzyme)
Protocol: Assay 2: Compared to the conditions in Assay 1, this assay has a larger dynamic range and ensures the system is under steady-state conditions by reducing the enzyme concentration in the assay.
Test compounds were plated in a 3× dilution scheme in a 384 well plate. […] AMP Detection solution (10 μL) was added to each well, the plate centrifuged and incubated for 60 min.

ENPP-1 ECD [3] = biological target: T1, ENPP-1 ECD; assay: Assay 1: inhibition of ENPP1 hydrolysis of 2′,3′-cGAMP (AMP-Glo, […] enzyme)
Protocol: Assay 1: Test compounds were plated in a 3× dilution scheme in a 384 well plate. […] AMP Detection solution (100 μL) was added to each well, the plate centrifuged and incubated for 60 min.

[4] = Assay 2 (KI), ENPP1 hydrolysis of 2′,3′-cGAMP, AMP-Glo, […] ENPP-1, 24 μM cGAMP
[5] = Assay 2 (KI), inhibition of ENPP1 hydrolysis of 2′,3′-cGAMP, no unit in Table 18 (Table 17 legend for this assay uses nM)
[6] = Assay 1 (IC50), ENPP1 hydrolysis of 2′,3′-cGAMP, AMP-Glo
[7] = Assay 1 (IC50), inhibition of ENPP1 hydrolysis of 2′,3′-cGAMP, no unit in Table 18 (Table 17 legend for this assay uses nM)

Sequence of ENPP1 on MDA-MB-231 cells (P22413 whole entry, the tested form may be a part): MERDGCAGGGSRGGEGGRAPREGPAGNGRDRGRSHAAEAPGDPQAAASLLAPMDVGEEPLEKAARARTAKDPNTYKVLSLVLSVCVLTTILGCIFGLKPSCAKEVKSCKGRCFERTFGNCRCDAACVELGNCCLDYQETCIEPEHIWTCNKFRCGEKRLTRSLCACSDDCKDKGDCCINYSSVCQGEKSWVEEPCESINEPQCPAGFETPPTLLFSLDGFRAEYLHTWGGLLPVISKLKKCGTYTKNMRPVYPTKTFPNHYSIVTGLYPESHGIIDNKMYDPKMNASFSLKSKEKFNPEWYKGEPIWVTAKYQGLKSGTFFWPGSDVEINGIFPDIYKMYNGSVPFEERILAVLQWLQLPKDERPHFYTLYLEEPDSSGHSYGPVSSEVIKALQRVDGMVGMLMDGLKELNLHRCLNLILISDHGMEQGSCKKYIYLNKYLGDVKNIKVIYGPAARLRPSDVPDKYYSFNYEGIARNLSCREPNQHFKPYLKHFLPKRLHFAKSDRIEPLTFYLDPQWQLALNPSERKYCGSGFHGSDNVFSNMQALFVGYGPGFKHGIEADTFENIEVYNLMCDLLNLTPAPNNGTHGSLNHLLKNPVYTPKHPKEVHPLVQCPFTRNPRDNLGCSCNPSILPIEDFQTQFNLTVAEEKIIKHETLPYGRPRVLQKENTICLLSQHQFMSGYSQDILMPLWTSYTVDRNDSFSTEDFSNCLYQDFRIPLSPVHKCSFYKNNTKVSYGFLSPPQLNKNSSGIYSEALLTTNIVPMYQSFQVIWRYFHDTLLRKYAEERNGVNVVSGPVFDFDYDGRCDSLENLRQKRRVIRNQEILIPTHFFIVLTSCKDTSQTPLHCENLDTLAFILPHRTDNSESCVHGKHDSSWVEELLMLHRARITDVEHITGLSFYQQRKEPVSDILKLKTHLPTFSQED
T1 sequence (P22413 98-925): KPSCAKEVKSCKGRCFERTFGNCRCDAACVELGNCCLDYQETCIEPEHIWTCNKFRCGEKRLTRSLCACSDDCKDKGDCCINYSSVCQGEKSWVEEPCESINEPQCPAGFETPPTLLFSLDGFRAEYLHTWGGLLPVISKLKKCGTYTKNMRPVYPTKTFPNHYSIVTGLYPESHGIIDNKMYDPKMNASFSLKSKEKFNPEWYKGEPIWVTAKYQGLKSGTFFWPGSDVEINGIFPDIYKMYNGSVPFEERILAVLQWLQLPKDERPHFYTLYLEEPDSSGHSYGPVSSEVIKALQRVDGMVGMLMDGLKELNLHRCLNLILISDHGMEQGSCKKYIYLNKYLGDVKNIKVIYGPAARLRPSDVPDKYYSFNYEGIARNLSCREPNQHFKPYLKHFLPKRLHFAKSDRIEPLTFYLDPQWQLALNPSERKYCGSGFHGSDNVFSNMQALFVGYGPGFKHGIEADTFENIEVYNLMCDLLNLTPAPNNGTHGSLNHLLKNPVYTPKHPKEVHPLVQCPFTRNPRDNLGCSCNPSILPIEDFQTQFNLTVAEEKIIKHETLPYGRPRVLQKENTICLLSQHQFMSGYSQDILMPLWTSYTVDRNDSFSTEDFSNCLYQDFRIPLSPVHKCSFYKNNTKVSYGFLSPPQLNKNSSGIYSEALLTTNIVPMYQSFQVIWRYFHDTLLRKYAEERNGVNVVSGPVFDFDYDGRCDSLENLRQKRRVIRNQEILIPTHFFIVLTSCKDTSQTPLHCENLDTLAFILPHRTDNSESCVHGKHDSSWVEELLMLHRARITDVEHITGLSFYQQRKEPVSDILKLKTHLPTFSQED

SMILES	Ki [1] [nM]	Ki (ENPP-1 ECD [2]; [4]) [nM]	Ki (ENPP-1 ECD [2]; [5]) [nM]	IC50 (ENPP-1 ECD [3]; [6]) [nM]	IC50 (ENPP-1 ECD [3]; [7]) [nM]	Ki ([1]; read-out: Assay 3 (KI, app), apparent KI from IC50 via Cheng/Prusoff, pNP-AMP […], MDA-MB-231 cells, pH 7.4, 37° C., 3 h, unit inferred) [nM]	Ki (ENPP-1 ECD [2]; read-out: Assay 2 (KI), ENPP1 hydrolysis of 2′,3′-cGAMP, AMP-Glo, […] ENPP-1, 24 μM cGAMP) [nM]	Ki (ENPP-1 ECD [2]; read-out: Assay 2 (KI), inhibition of ENPP1 hydrolysis of 2′,3′-cGAMP, no unit in Table 18 (Table 17 legend for this assay uses nM)) [nM]	IC50 (ENPP-1 ECD [3]; read-out: Assay 1 (IC50), ENPP1 hydrolysis of 2′,3′-cGAMP, AMP-Glo) [nM]	IC50 (ENPP-1 ECD [3]; read-out: Assay 1 (IC50), inhibition of ENPP1 hydrolysis of 2′,3′-cGAMP, no unit in Table 18 (Table 17 legend for this assay uses nM)) [nM]
COc1ccc2c(N3CCC4(CC3)CN(S(C)(=N)=O)C4)ccnc2c1 (stereo not drawn) [Compound 53, 7-methoxy-4-(2-(S-methylsulfonimidoyl)-2,7-diazaspiro[3.5]nonan-7-yl)quinoline]	160	3 to 300	4.6	10 to 1000	44	–	–	–	–	–
COc1ccc2c(Oc3ccc(S(C)(=N)=O)nc3)ccnc2c1 (stereo not drawn) [Compound 101, imino({5-[(7-methoxyquinolin-4-yl)oxy]pyridin-2-yl})methyl-λ^6-sulfanone]	300	3 to 300	5.4	10 to 1000	40	–	–	–	–	–
COc1ccc2c(OCc3ccc([S@@](C)(=N)=O)cc3)ccnc2c1 [Compound 75a]	–	–	–	–	–	22	< 3	0.38	< 10	3
